Test results as given in patent US20230172940A1, “METHODS OF EXTENDING LIFESPAN BY ADMINISTERING FERROPTOSIS INHIBITORS” (COLLABORATIVE MEDICINAL DEVELOPMENT, LLC, priority 2020, published 2023).

Legend:
E. coli (strain OP50) = test: Disk diffusion test; type: cell-based, Escherichia coli
Excerpt: C. elegans are bacteriophores and the E. coli (OP50) monoxenic diet can colonize the pharynx and intestine, resulting in death. Consequently, antibiotics are known to extend C. elegans lifespan. In addition, iron chelating compounds, such as EDTA have been reported to have antibiotic properties.

C. elegans = test: Movement; type: in vivo, Caenorhabditis elegans; conditions: for maximum velocity, 25% Percentile / maximum velocity, 75% Percentile / maximum velocity, Maximum / maximum velocity, Mean / maximum velocity, Median / maximum velocity, Minimum / mean velocity, 25% Percentile / mean velocity, 75% Percentile / mean velocity, Maximum / mean velocity, Mean / mean velocity, Median / mean velocity, Minimum / total distance traveled, 25% Percentile / total distance traveled, 75% Percentile / total distance traveled, Maximum / total distance traveled, Mean / total distance traveled, Median / total distance traveled, Minimum: 250 μM SIH or 200 μM Lip-1, 25° C; for total distance traveled, 25% Percentile / total distance traveled, 75% Percentile / total distance traveled, Maximum / total distance traveled, Mean / total distance traveled, Median / total distance traveled, Minimum: 30 second recording; for age-related decline in mean velocity: Kruskal-Wallis ANOVA H(7)=339.2, p<0.0001; for maximum velocity of aging animals: in vivo
Protocol: A developmentally synchronous population, derived from eggs laid over a 2-hour window, were cultured on NGA media at 25° C. for 48 h, and then as young adult worms were transferred onto three treatment plates for an additional 24 h. The treatment plates included NGM+0.5% (v/v) DMSO (vehicle control, Ctl), NGM+250 μM SIH, and NGM+200 μM Lip-1 (as described above).
Single worms were transferred to a 55 mm NGA assay plate devoid of a bacterial lawn, without a lid, and left to recover from the transfer for 2 minutes. Movement of the adults was then recorded using a stereomicroscope (Leica M80) with transmitted illumination from below. A 30 second video recording was captured using a 3 MP DFC290 HD digital camera (Leica Microsystems) at a rate of 30 frames per second. Pixel length was calibrated using a 25 μm grid slide (Microbrightfield, Inc). Recorded series were analysed using the wrMTrck plugin for ImageJ (www.phage.dk/plugins) and Fiji (a distribution of ImageJ).
The maximum velocity achieved was expressed as mm per second (as derived from the distance between displaced centroids per second). Additional metrics of movement were determined including mean velocity (mm s^−1) and (total) distance travelled (mm). These variables were collated in Prism (v7.0a GraphPad Software) and presented as a scatter plot with medians and interquartile range.

C. elegans strain TJ1060 = test: Parametric survival models (Weibull frailty), goodness of fit, combining replicates, meta-analysis; design: species or system Caenorhabditis elegans
Protocol: Parametric survival models with Weibull baseline hazards and Gamma frailty were fitted to replicate-specific data using the R package flexsurv. A likelihood ratio test was used to compare models that assume simple temporal rescaling to models that allow varying degrees of departure from temporal rescaling. The best model for each replicate was selected using a likelihood ratio test and the goodness of fit (GOF) of the best model is evaluated using a chi-square GOF test. To combine data across different replicates, we performed fixed-effect and random-effect meta-analyses for each parameter in the best model. Briefly, the fixed-effect meta-analysis estimates were derived using Inverse Variance Weighting (IVW) in which the estimates from each replicate were weighted by the inverse of their variance estimates. The meta-analysis estimates were then calculated simply as the weighted average of estimates from all replicates. The fixed-effect meta-analysis assumes that there is insignificant variation between the estimates of the same parameter across different replicates. The random-effect meta-analysis also derives the estimates by assigning weights to estimates from each replicate, but in this case the weights take into account the variation of estimates across replicates. […]

OP50 E. coli = test: Bacterial growth assay (OD600); type: cell-based, Escherichia coli; conditions: after 12 hours, 37° C
Protocol: The effects of test compounds on growth of the OP50 E. coli feed was assayed using optical density at 600 nm (OD600). Using standard microtitre plates, replicate wells of 200 μL of sterile Luria broth were inoculated with 2 μL of an overnight OP50 culture in addition to the stated final concentrations of ampicillin (Amp), Lip-1 and SIH. OD600 measures were taken after 12 hours in an EnSpire (PerkinElmer) spectrophotometric plate reader preset to 37° C., with 30 sec of 200 rpm orbital shaking every 10 minutes.
Data was averaged across duplicate experiments, each with eight replicate wells per treatment where a baseline of Luria broth without an inoculate was subtracted.

Compound: O=C(N/N=C/c1ccccc1O)c1ccncc1 [SIH, Salicylaldehyde isonicotinoyl hydrazone]
- inhibition of E. coli (strain OP50) growth (E. coli (strain OP50)): no evidence for inhibition
- maximum velocity, 25% Percentile (C. elegans; Day 4): 0.3442 mm per second
- maximum velocity, 75% Percentile (C. elegans; Day 4): 0.4755 mm per second
- maximum velocity, Maximum (C. elegans; Day 4): 0.7127 mm per second
- maximum velocity, Mean (C. elegans; Day 4): 0.392 mm per second
- maximum velocity, Median (C. elegans; Day 4): 0.3733 mm per second
- maximum velocity, Minimum (C. elegans; Day 4): 0.105 mm per second
- mean velocity, 25% Percentile (C. elegans; Day 4): 0.1307 mm s-1
- mean velocity, 75% Percentile (C. elegans; Day 4): 0.1824 mm s-1
- mean velocity, Maximum (C. elegans; Day 4): 0.2629 mm s-1
- mean velocity, Mean (C. elegans; Day 4): 0.1528 mm s-1
- mean velocity, Median (C. elegans; Day 4): 0.1545 mm s-1
- mean velocity, Minimum (C. elegans; Day 4): 0.02713 mm s-1
- total distance traveled, 25% Percentile (C. elegans; Day 4): 3.977 mm
- total distance traveled, 75% Percentile (C. elegans; Day 4): 5.513 mm
- total distance traveled, Maximum (C. elegans; Day 4): 6.951 mm
- total distance traveled, Mean (C. elegans; Day 4): 4.619 mm
- total distance traveled, Median (C. elegans; Day 4): 4.766 mm
- total distance traveled, Minimum (C. elegans; Day 4): 0.8402 mm
- maximum velocity, 25% Percentile (C. elegans; Day 8): 0.174 mm per second
- maximum velocity, 75% Percentile (C. elegans; Day 8): 0.3506 mm per second
- maximum velocity, Maximum (C. elegans; Day 8): 0.6458 mm per second
- maximum velocity, Mean (C. elegans; Day 8): 0.2847 mm per second
- maximum velocity, Median (C. elegans; Day 8): 0.2513 mm per second
- maximum velocity, Minimum (C. elegans; Day 8): 0.1028 mm per second
- mean velocity, 25% Percentile (C. elegans; Day 8): 0.04028 mm s-1
- mean velocity, 75% Percentile (C. elegans; Day 8): 0.1029 mm s-1
- mean velocity, Maximum (C. elegans; Day 8): 0.1739 mm s-1
- mean velocity, Mean (C. elegans; Day 8): 0.07262 mm s-1
- mean velocity, Median (C. elegans; Day 8): 0.05813 mm s-1
- mean velocity, Minimum (C. elegans; Day 8): 0.02239 mm s-1
- total distance traveled, 25% Percentile (C. elegans; Day 8): 1.224 mm
- total distance traveled, 75% Percentile (C. elegans; Day 8): 3.193 mm
- total distance traveled, Maximum (C. elegans; Day 8): 5.235 mm
- total distance traveled, Mean (C. elegans; Day 8): 2.192 mm
- total distance traveled, Median (C. elegans; Day 8): 1.784 mm
- total distance traveled, Minimum (C. elegans; Day 8): 0.6912 mm
- age-related decline in mean velocity (C. elegans): attenuates the age-related decline in mean velocity
- maximum velocity of aging animals (C. elegans): markedly improved
- risk of death (hazard) in early adulthood (C. elegans strain TJ1060; compared to control populations, rose precipitously in late life): greatly reduced
- growth of OP50 E. coli (OD600) (OP50 E. coli): neither Lip-1 nor SIH suppressed bacterial growth

Compound: Clc1cccc(CNC2=Nc3ccccc3NC23CCNCC3)c1 [Lip-1, N-[(3-chlorophenyl)methyl]-spiro[piperidine-4,2′(1′H)-quinoxalin]-3′-amine]
- inhibition of E. coli (strain OP50) growth (E. coli (strain OP50)): no evidence for inhibition
- maximum velocity, 25% Percentile (C. elegans; Day 4): 0.2711 mm per second
- maximum velocity, 75% Percentile (C. elegans; Day 4): 0.4861 mm per second
- maximum velocity, Maximum (C. elegans; Day 4): 0.7204 mm per second
- maximum velocity, Mean (C. elegans; Day 4): 0.37 mm per second
- maximum velocity, Median (C. elegans; Day 4): 0.3762 mm per second
- maximum velocity, Minimum (C. elegans; Day 4): 0.06351 mm per second
- mean velocity, 25% Percentile (C. elegans; Day 4): 0.05892 mm s-1
- mean velocity, 75% Percentile (C. elegans; Day 4): 0.1839 mm s-1
- mean velocity, Maximum (C. elegans; Day 4): 0.2606 mm s-1
- mean velocity, Mean (C. elegans; Day 4): 0.1244 mm s-1
- mean velocity, Median (C. elegans; Day 4): 0.1349 mm s-1
- mean velocity, Minimum (C. elegans; Day 4): 0.01219 mm s-1
- total distance traveled, 25% Percentile (C. elegans; Day 4): 1.797 mm
- total distance traveled, 75% Percentile (C. elegans; Day 4): 5.397 mm
- total distance traveled, Maximum (C. elegans; Day 4): 7.817 mm
- total distance traveled, Mean (C. elegans; Day 4): 3.685 mm
- total distance traveled, Median (C. elegans; Day 4): 4.126 mm
- total distance traveled, Minimum (C. elegans; Day 4): 0.07633 mm
- maximum velocity, 25% Percentile (C. elegans; Day 8): 0.1478 mm per second
- maximum velocity, 75% Percentile (C. elegans; Day 8): 0.2452 mm per second
- maximum velocity, Maximum (C. elegans; Day 8): 0.5563 mm per second
- maximum velocity, Mean (C. elegans; Day 8): 0.2084 mm per second
- maximum velocity, Median (C. elegans; Day 8): 0.1922 mm per second
- maximum velocity, Minimum (C. elegans; Day 8): 0.05622 mm per second
- mean velocity, 25% Percentile (C. elegans; Day 8): 0.03386 mm s-1
- mean velocity, 75% Percentile (C. elegans; Day 8): 0.06818 mm s-1
- mean velocity, Maximum (C. elegans; Day 8): 0.1644 mm s-1
- mean velocity, Mean (C. elegans; Day 8): 0.05407 mm s-1
- mean velocity, Median (C. elegans; Day 8): 0.04763 mm s-1
- mean velocity, Minimum (C. elegans; Day 8): 0.008319 mm s-1
- total distance traveled, 25% Percentile (C. elegans; Day 8): 1.001 mm
- total distance traveled, 75% Percentile (C. elegans; Day 8): 2.092 mm
- total distance traveled, Maximum (C. elegans; Day 8): 4.926 mm
- total distance traveled, Mean (C. elegans; Day 8): 1.627 mm
- total distance traveled, Median (C. elegans; Day 8): 1.451 mm
- total distance traveled, Minimum (C. elegans; Day 8): 0.2338 mm
- age-related decline in mean velocity (C. elegans): attenuates the age-related decline in mean velocity
- maximum velocity of aging animals (C. elegans): markedly improved
- rate of mortality in the post-reproductive period (late-life) (C. elegans strain TJ1060): markedly reduced
- growth of OP50 E. coli (OD600) (OP50 E. coli): neither Lip-1 nor SIH suppressed bacterial growth
